PubChem BioAssay AID248 (DTP/NCI, 2004)
Toxic doses and inconclusive results are not listed. No stated cut-off is given here; in the data, active means T/C of 150% or more; inactive means T/C below 125%.

Tested on: L1210 leukemia ip in BDF1 mice, survival T/C
Assay: NCI In Vivo Anticancer Drug Screen. Data for tumor model L1210 Leukemia (intraperitoneal) in B6D2F1 (BDF1) mice
Settings: endpoint: mean survival time, higher = longer survival
In short: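 Ratio derived from survival: compound-dosed mice over vehicle-dosed mice, all bearing a transplantable tumor.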

[1] = dose: 12.5 mg/kg/injection, schedule: Q01DX009 (ip), vehicle: Klucel (hydroxypropylcellulose) (HPC)
[2] = dose: 25.0 mg/kg/injection, schedule: Q01DX009 (ip), vehicle: Klucel (hydroxypropylcellulose) (HPC)
[3] = dose: 100.0 mg/kg/injection, schedule: Q01DX009 (ip), vehicle: saline
[4] = dose: 200.0 mg/kg/injection, schedule: Q01DX009 (ip), vehicle: saline
[5] = dose: 400.0 mg/kg/injection, schedule: Q01DX009 (ip), vehicle: saline

Measured: T/C

CC(=N/Nc1ccc([N+](=O)[O-])cc1[N+](=O)[O-])/C(C)=C/C1C=CCCC1(C)C (stereo not drawn)
inactive: dose: 100.0 mg/kg/injection, schedule: Q04DX002 (ip), vehicle: saline with Tween-80 100 % of control | dose: 200.0 mg/kg/injection, schedule: Q04DX002 (ip), vehicle: saline with Tween-80 103 % of control | dose: 400.0 mg/kg/injection, schedule: Q04DX002 (ip), vehicle: saline with Tween-80 96 % of control

O=C(NCCCl)NC1CCCc2ccccc21 (stereo not drawn)
inactive: dose: 6.25 mg/kg/injection, schedule: Q01DX009 (ip), vehicle: Klucel (hydroxypropylcellulose) (HPC) 95 % of control | [1] 94 % of control | [2] 90 % of control | dose: 50.0 mg/kg/injection, schedule: Q01DX009 (ip), vehicle: Klucel (hydroxypropylcellulose) (HPC) 92 % of control | dose: 100.0 mg/kg/injection, schedule: Q01DX001 (ip), vehicle: Klucel (hydroxypropylcellulose) (HPC) 105 % of control | dose: 200.0 mg/kg/injection, schedule: Q01DX001 (ip), vehicle: Klucel (hydroxypropylcellulose) (HPC) 91 % of control

CN(C1=CC(=O)C(N(C)C2CCCCC2)=CC1=O)C1CCCCC1
inactive: dose: 7.5 mg/kg/injection, schedule: Q01DX009 (ip), vehicle: saline 90 % of control | dose: 15.0 mg/kg/injection, schedule: Q01DX009 (ip), vehicle: saline 93 % of control

NCS(=O)(=O)O
inactive: dose: 25.0 mg/kg/injection, schedule: Q01DX001 (ip), vehicle: saline with Tween-80 107 % of control | dose: 50.0 mg/kg/injection, schedule: Q01DX001 (ip), vehicle: saline with Tween-80 107 % of control | dose: 100.0 mg/kg/injection, schedule: Q01DX009 (ip), vehicle: Klucel (hydroxypropylcellulose) (HPC) 98 % of control | [3] 100 % of control | dose: 200.0 mg/kg/injection, schedule: Q01DX009 (ip), vehicle: Klucel (hydroxypropylcellulose) (HPC) 98 % of control | [4] 93 % of control | dose: 400.0 mg/kg/injection, schedule: Q01DX009 (ip), vehicle: Klucel (hydroxypropylcellulose) (HPC) 95 % of control | [5] 88 % of control

CCCn1ncc(=O)[nH]c1=O
inactive: dose: 50.0 mg/kg/injection, schedule: Q01DX009 (ip), vehicle: saline with Tween-80 96 % of control | dose: 100.0 mg/kg/injection, schedule: Q01DX009 (ip), vehicle: saline with Tween-80 112 % of control | dose: 200.0 mg/kg/injection, schedule: Q01DX009 (ip), vehicle: saline with Tween-80 103 % of control

O=[As](O)(CC(O)c1ccccc1)c1ccccc1 (stereo not drawn)
inactive: dose: 6.25 mg/kg/injection, schedule: Q01DX001 (ip), vehicle: saline with Tween-80 97 % of control | dose: 12.5 mg/kg/injection, schedule: Q01DX001 (ip), vehicle: saline with Tween-80 103 % of control

Cc1noc(NS(=O)(=O)c2ccc(N=NC3SC(=S)NC3=O)cc2)c1C (stereo not drawn)
inactive: dose: 75.0 mg/kg/injection, schedule: Q01DX001 (ip), vehicle: saline 95 % of control | dose: 150.0 mg/kg/injection, schedule: Q01DX001 (ip), vehicle: saline 98 % of control | dose: 300.0 mg/kg/injection, schedule: Q01DX001 (ip), vehicle: saline 101 % of control

CC(C)(C)OC(=O)NO
inactive: [3] 103 % of control | dose: 100.0 mg/kg/injection, schedule: Q04DX002 (ip), vehicle: saline 110 % of control | dose: 100.0 mg/kg/injection, schedule: Q04DX003 (ip), vehicle: saline 104 % of control | [4] 100 % of control | dose: 200.0 mg/kg/injection, schedule: Q04DX002 (ip), vehicle: saline 98 % of control | dose: 200.0 mg/kg/injection, schedule: Q04DX003 (ip), vehicle: saline 104 % of control | [5] 108 % of control | dose: 400.0 mg/kg/injection, schedule: Q04DX002 (ip), vehicle: saline 110 % of control | dose: 400.0 mg/kg/injection, schedule: Q04DX003 (ip), vehicle: saline 106 % of control

CCOc1ccc(-n2c(C)nc3ccccc3c2=O)cc1CNCCBr
inactive: dose: 50.0 mg/kg/injection, schedule: Q01DX001 (ip), vehicle: saline 103 % of control | dose: 100.0 mg/kg/injection, schedule: Q01DX001 (ip), vehicle: saline 111 % of control | dose: 200.0 mg/kg/injection, schedule: Q01DX001 (ip), vehicle: saline 111 % of control

CCCCCCCCCCCCCOc1ccc(S(=O)(=O)/N=C(\N)NC(N)=NCCCCCCCCCCCC)cc1
inactive: dose: 100.0 mg/kg/injection, schedule: Q04DX002 (ip), vehicle: Klucel (hydroxypropylcellulose) (HPC) 93 % of control | dose: 200.0 mg/kg/injection, schedule: Q04DX002 (ip), vehicle: Klucel (hydroxypropylcellulose) (HPC) 93 % of control | dose: 400.0 mg/kg/injection, schedule: Q04DX002 (ip), vehicle: Klucel (hydroxypropylcellulose) (HPC) 86 % of control

[Cl][Rh][Cl].c1cn[nH]c1.c1cn[nH]c1.c1cn[nH]c1.c1cn[nH]c1
inactive: [1] 98 % of control | dose: 12.5 mg/kg/injection, schedule: Q04DX003 (ip), vehicle: Klucel (hydroxypropylcellulose) (HPC) 90 % of control | [2] 89 % of control | dose: 25.0 mg/kg/injection, schedule: Q04DX003 (ip), vehicle: Klucel (hydroxypropylcellulose) (HPC) 95 % of control | dose: 50.0 mg/kg/injection, schedule: Q04DX003 (ip), vehicle: Klucel (hydroxypropylcellulose) (HPC) 102 % of control

Cc1ccc[n+]2c1ccc1c3ccccc3ccc12
inactive: dose: 10.0 mg/kg/injection, schedule: Q01DX001 (ip), vehicle: saline 106 % of control
